Assay results: patent US11952584B2, “Functional peptides having antimicrobial activity against phytopathogenic microorganisms” (TOYOTA JIDOSHA KABUSHIKI KAISHA, priority 2019, dated 2024)
Read-outs that look alike come from different tables or passages of the source.

What was measured:
Type in all cases: cell-based
[1] = test system: Colletotrichum destructivum; settings: 25° C., 1 day or 2 days
Pyricularia oryzae = settings: 25° C., 1 day or 2 days
[2] = test system: Colletotrichum orbiculare; settings: 25° C., 1 day or 2 days
Botrytis cinerea = settings: 25° C., 1 day or 2 days
Fusarium oxysporum = test system: Fusarium oxysporum

RIWKG (listed as Solanum lycopersicum) [TsORF18-2-5aa-16]
0: Plate antimicrobial activity test Colletotrichum destructivum (level) ([1]; peptide 1 μM) | Plate antimicrobial activity test Colletotrichum destructivum (level) ([1]; peptide 10 μM) | Plate antimicrobial activity test Colletotrichum destructivum (level) ([1]; peptide 100 μM) | Plate antimicrobial activity test Pyricularia oryzae (level) (Pyricularia oryzae; peptide 1 μM) | Plate antimicrobial activity test Pyricularia oryzae (level) (Pyricularia oryzae; peptide 10 μM) | Plate antimicrobial activity test Pyricularia oryzae (level) (Pyricularia oryzae; peptide 100 μM) | Plate antimicrobial activity test Collectotrichum orbiculare (level) ([2]; peptide 1 μM) | Plate antimicrobial activity test Collectotrichum orbiculare (level) ([2]; peptide 10 μM) | Plate antimicrobial activity test Collectotrichum orbiculare (level) ([2]; peptide 100 μM) | Plate antimicrobial activity test Botrytis cinerea (level) (Botrytis cinerea; peptide 1 μM) | Plate antimicrobial activity test Botrytis cinerea (level) (Botrytis cinerea; peptide 10 μM) | Plate antimicrobial activity test Botrytis cinerea (level) (Botrytis cinerea; peptide 100 μM) | Plate antimicrobial activity test Fusarium oxysporum (level) (Fusarium oxysporum)

PAFSE (listed as Solanum lycopersicum) [TsORF18-2-5aa-5]
0: Plate antimicrobial activity test Colletotrichum destructivum (level) ([1]; peptide 1 μM) | Plate antimicrobial activity test Colletotrichum destructivum (level) ([1]; peptide 10 μM) | Plate antimicrobial activity test Colletotrichum destructivum (level) ([1]; peptide 100 μM) | Plate antimicrobial activity test Pyricularia oryzae (level) (Pyricularia oryzae; peptide 1 μM) | Plate antimicrobial activity test Pyricularia oryzae (level) (Pyricularia oryzae; peptide 10 μM) | Plate antimicrobial activity test Pyricularia oryzae (level) (Pyricularia oryzae; peptide 100 μM) | Plate antimicrobial activity test Collectotrichum orbiculare (level) ([2]; peptide 1 μM) | Plate antimicrobial activity test Collectotrichum orbiculare (level) ([2]; peptide 10 μM) | Plate antimicrobial activity test Collectotrichum orbiculare (level) ([2]; peptide 100 μM) | Plate antimicrobial activity test Botrytis cinerea (level) (Botrytis cinerea; peptide 1 μM) | Plate antimicrobial activity test Botrytis cinerea (level) (Botrytis cinerea; peptide 10 μM) | Plate antimicrobial activity test Botrytis cinerea (level) (Botrytis cinerea; peptide 100 μM) | Plate antimicrobial activity test Fusarium oxysporum (level) (Fusarium oxysporum)

KGKTS (listed as Solanum lycopersicum) [TsORF18-2-5aa-19]
0: Plate antimicrobial activity test Colletotrichum destructivum (level) ([1]; peptide 1 μM) | Plate antimicrobial activity test Colletotrichum destructivum (level) ([1]; peptide 10 μM) | Plate antimicrobial activity test Colletotrichum destructivum (level) ([1]; peptide 100 μM) | Plate antimicrobial activity test Pyricularia oryzae (level) (Pyricularia oryzae; peptide 1 μM) | Plate antimicrobial activity test Pyricularia oryzae (level) (Pyricularia oryzae; peptide 10 μM) | Plate antimicrobial activity test Pyricularia oryzae (level) (Pyricularia oryzae; peptide 100 μM) | Plate antimicrobial activity test Collectotrichum orbiculare (level) ([2]; peptide 1 μM) | Plate antimicrobial activity test Collectotrichum orbiculare (level) ([2]; peptide 10 μM) | Plate antimicrobial activity test Collectotrichum orbiculare (level) ([2]; peptide 100 μM) | Plate antimicrobial activity test Botrytis cinerea (level) (Botrytis cinerea; peptide 1 μM) | Plate antimicrobial activity test Botrytis cinerea (level) (Botrytis cinerea; peptide 10 μM) | Plate antimicrobial activity test Botrytis cinerea (level) (Botrytis cinerea; peptide 100 μM) | Plate antimicrobial activity test Fusarium oxysporum (level) (Fusarium oxysporum)

FSERTRKF (listed as Solanum lycopersicum) [TsORF18-2-8aa-7]
0: Plate antimicrobial activity test Colletotrichum destructivum (level) ([1]; peptide 1 μM) | Plate antimicrobial activity test Colletotrichum destructivum (level) ([1]; peptide 10 μM) | Plate antimicrobial activity test Colletotrichum destructivum (level) ([1]; peptide 100 μM) | Plate antimicrobial activity test Pyricularia oryzae (level) (Pyricularia oryzae; peptide 1 μM) | Plate antimicrobial activity test Pyricularia oryzae (level) (Pyricularia oryzae; peptide 10 μM) | Plate antimicrobial activity test Pyricularia oryzae (level) (Pyricularia oryzae; peptide 100 μM) | Plate antimicrobial activity test Collectotrichum orbiculare (level) ([2]; peptide 1 μM) | Plate antimicrobial activity test Collectotrichum orbiculare (level) ([2]; peptide 10 μM) | Plate antimicrobial activity test Collectotrichum orbiculare (level) ([2]; peptide 100 μM) | Plate antimicrobial activity test Botrytis cinerea (level) (Botrytis cinerea; peptide 1 μM) | Plate antimicrobial activity test Botrytis cinerea (level) (Botrytis cinerea; peptide 10 μM) | Plate antimicrobial activity test Botrytis cinerea (level) (Botrytis cinerea; peptide 100 μM) | Plate antimicrobial activity test Fusarium oxysporum (level) (Fusarium oxysporum)

YGFPAFSE (listed as Solanum lycopersicum) [TsORF18-2-8aa-2]
0: Plate antimicrobial activity test Colletotrichum destructivum (level) ([1]; peptide 1 μM) | Plate antimicrobial activity test Colletotrichum destructivum (level) ([1]; peptide 10 μM) | Plate antimicrobial activity test Colletotrichum destructivum (level) ([1]; peptide 100 μM) | Plate antimicrobial activity test Pyricularia oryzae (level) (Pyricularia oryzae; peptide 1 μM) | Plate antimicrobial activity test Pyricularia oryzae (level) (Pyricularia oryzae; peptide 10 μM) | Plate antimicrobial activity test Pyricularia oryzae (level) (Pyricularia oryzae; peptide 100 μM) | Plate antimicrobial activity test Collectotrichum orbiculare (level) ([2]; peptide 1 μM) | Plate antimicrobial activity test Collectotrichum orbiculare (level) ([2]; peptide 10 μM) | Plate antimicrobial activity test Collectotrichum orbiculare (level) ([2]; peptide 100 μM) | Plate antimicrobial activity test Botrytis cinerea (level) (Botrytis cinerea; peptide 1 μM) | Plate antimicrobial activity test Botrytis cinerea (level) (Botrytis cinerea; peptide 10 μM) | Plate antimicrobial activity test Botrytis cinerea (level) (Botrytis cinerea; peptide 100 μM) | Plate antimicrobial activity test Fusarium oxysporum (level) (Fusarium oxysporum)

YGFPA (listed as Solanum lycopersicum) [TsORF18-2-5aa-2]
0: Plate antimicrobial activity test Colletotrichum destructivum (level) ([1]; peptide 1 μM) | Plate antimicrobial activity test Colletotrichum destructivum (level) ([1]; peptide 10 μM) | Plate antimicrobial activity test Colletotrichum destructivum (level) ([1]; peptide 100 μM) | Plate antimicrobial activity test Pyricularia oryzae (level) (Pyricularia oryzae; peptide 1 μM) | Plate antimicrobial activity test Pyricularia oryzae (level) (Pyricularia oryzae; peptide 10 μM) | Plate antimicrobial activity test Pyricularia oryzae (level) (Pyricularia oryzae; peptide 100 μM) | Plate antimicrobial activity test Collectotrichum orbiculare (level) ([2]; peptide 1 μM) | Plate antimicrobial activity test Collectotrichum orbiculare (level) ([2]; peptide 10 μM) | Plate antimicrobial activity test Collectotrichum orbiculare (level) ([2]; peptide 100 μM) | Plate antimicrobial activity test Botrytis cinerea (level) (Botrytis cinerea; peptide 1 μM) | Plate antimicrobial activity test Botrytis cinerea (level) (Botrytis cinerea; peptide 10 μM) | Plate antimicrobial activity test Botrytis cinerea (level) (Botrytis cinerea; peptide 100 μM) | Plate antimicrobial activity test Fusarium oxysporum (level) (Fusarium oxysporum)

WKGKT (listed as Solanum lycopersicum) [TsORF18-2-5aa-18]
0: Plate antimicrobial activity test Colletotrichum destructivum (level) ([1]; peptide 1 μM) | Plate antimicrobial activity test Colletotrichum destructivum (level) ([1]; peptide 10 μM) | Plate antimicrobial activity test Colletotrichum destructivum (level) ([1]; peptide 100 μM) | Plate antimicrobial activity test Pyricularia oryzae (level) (Pyricularia oryzae; peptide 1 μM) | Plate antimicrobial activity test Pyricularia oryzae (level) (Pyricularia oryzae; peptide 10 μM) | Plate antimicrobial activity test Pyricularia oryzae (level) (Pyricularia oryzae; peptide 100 μM) | Plate antimicrobial activity test Collectotrichum orbiculare (level) ([2]; peptide 1 μM) | Plate antimicrobial activity test Collectotrichum orbiculare (level) ([2]; peptide 10 μM) | Plate antimicrobial activity test Collectotrichum orbiculare (level) ([2]; peptide 100 μM) | Plate antimicrobial activity test Botrytis cinerea (level) (Botrytis cinerea; peptide 1 μM) | Plate antimicrobial activity test Botrytis cinerea (level) (Botrytis cinerea; peptide 10 μM) | Plate antimicrobial activity test Botrytis cinerea (level) (Botrytis cinerea; peptide 100 μM) | Plate antimicrobial activity test Fusarium oxysporum (level) (Fusarium oxysporum)

IWKGK (listed as Solanum lycopersicum) [TsORF18-2-5aa-17]
0: Plate antimicrobial activity test Colletotrichum destructivum (level) ([1]; peptide 1 μM) | Plate antimicrobial activity test Colletotrichum destructivum (level) ([1]; peptide 10 μM) | Plate antimicrobial activity test Colletotrichum destructivum (level) ([1]; peptide 100 μM) | Plate antimicrobial activity test Pyricularia oryzae (level) (Pyricularia oryzae; peptide 1 μM) | Plate antimicrobial activity test Pyricularia oryzae (level) (Pyricularia oryzae; peptide 10 μM) | Plate antimicrobial activity test Pyricularia oryzae (level) (Pyricularia oryzae; peptide 100 μM) | Plate antimicrobial activity test Collectotrichum orbiculare (level) ([2]; peptide 1 μM) | Plate antimicrobial activity test Collectotrichum orbiculare (level) ([2]; peptide 10 μM) | Plate antimicrobial activity test Collectotrichum orbiculare (level) ([2]; peptide 100 μM) | Plate antimicrobial activity test Botrytis cinerea (level) (Botrytis cinerea; peptide 1 μM) | Plate antimicrobial activity test Botrytis cinerea (level) (Botrytis cinerea; peptide 10 μM) | Plate antimicrobial activity test Botrytis cinerea (level) (Botrytis cinerea; peptide 100 μM) | Plate antimicrobial activity test Fusarium oxysporum (level) (Fusarium oxysporum)

AFSER (listed as Solanum lycopersicum) [TsORF18-2-5aa-6]
0: Plate antimicrobial activity test Colletotrichum destructivum (level) ([1]; peptide 1 μM) | Plate antimicrobial activity test Colletotrichum destructivum (level) ([1]; peptide 10 μM) | Plate antimicrobial activity test Colletotrichum destructivum (level) ([1]; peptide 100 μM) | Plate antimicrobial activity test Pyricularia oryzae (level) (Pyricularia oryzae; peptide 1 μM) | Plate antimicrobial activity test Pyricularia oryzae (level) (Pyricularia oryzae; peptide 10 μM) | Plate antimicrobial activity test Pyricularia oryzae (level) (Pyricularia oryzae; peptide 100 μM) | Plate antimicrobial activity test Collectotrichum orbiculare (level) ([2]; peptide 1 μM) | Plate antimicrobial activity test Collectotrichum orbiculare (level) ([2]; peptide 10 μM) | Plate antimicrobial activity test Collectotrichum orbiculare (level) ([2]; peptide 100 μM) | Plate antimicrobial activity test Botrytis cinerea (level) (Botrytis cinerea; peptide 1 μM) | Plate antimicrobial activity test Botrytis cinerea (level) (Botrytis cinerea; peptide 10 μM) | Plate antimicrobial activity test Botrytis cinerea (level) (Botrytis cinerea; peptide 100 μM) | Plate antimicrobial activity test Fusarium oxysporum (level) (Fusarium oxysporum)

ILLSLEIFERKFSRSVWYYGFP [TsORF18-1]
0: Plate antimicrobial activity test Colletotrichum destructivum (level) ([1]; peptide 1 μM) | Plate antimicrobial activity test Colletotrichum destructivum (level) ([1]; peptide 10 μM) | Plate antimicrobial activity test Colletotrichum destructivum (level) ([1]; peptide 100 μM) | Plate antimicrobial activity test Pyricularia oryzae (level) (Pyricularia oryzae; peptide 1 μM) | Plate antimicrobial activity test Pyricularia oryzae (level) (Pyricularia oryzae; peptide 10 μM) | Plate antimicrobial activity test Pyricularia oryzae (level) (Pyricularia oryzae; peptide 100 μM) | Plate antimicrobial activity test Collectotrichum orbiculare (level) ([2]; peptide 1 μM) | Plate antimicrobial activity test Collectotrichum orbiculare (level) ([2]; peptide 10 μM) | Plate antimicrobial activity test Collectotrichum orbiculare (level) ([2]; peptide 100 μM) | Plate antimicrobial activity test Botrytis cinerea (level) (Botrytis cinerea; peptide 1 μM) | Plate antimicrobial activity test Botrytis cinerea (level) (Botrytis cinerea; peptide 10 μM) | Plate antimicrobial activity test Botrytis cinerea (level) (Botrytis cinerea; peptide 100 μM) | Plate antimicrobial activity test Fusarium oxysporum (level) (Fusarium oxysporum)

FPAFS (listed as Solanum lycopersicum) [TsORF18-2-5aa-4]
0: Plate antimicrobial activity test Colletotrichum destructivum (level) ([1]; peptide 1 μM) | Plate antimicrobial activity test Colletotrichum destructivum (level) ([1]; peptide 10 μM) | Plate antimicrobial activity test Colletotrichum destructivum (level) ([1]; peptide 100 μM) | Plate antimicrobial activity test Pyricularia oryzae (level) (Pyricularia oryzae; peptide 1 μM) | Plate antimicrobial activity test Pyricularia oryzae (level) (Pyricularia oryzae; peptide 10 μM) | Plate antimicrobial activity test Pyricularia oryzae (level) (Pyricularia oryzae; peptide 100 μM) | Plate antimicrobial activity test Collectotrichum orbiculare (level) ([2]; peptide 1 μM) | Plate antimicrobial activity test Collectotrichum orbiculare (level) ([2]; peptide 10 μM) | Plate antimicrobial activity test Collectotrichum orbiculare (level) ([2]; peptide 100 μM) | Plate antimicrobial activity test Botrytis cinerea (level) (Botrytis cinerea; peptide 1 μM) | Plate antimicrobial activity test Botrytis cinerea (level) (Botrytis cinerea; peptide 10 μM) | Plate antimicrobial activity test Botrytis cinerea (level) (Botrytis cinerea; peptide 100 μM) | Plate antimicrobial activity test Fusarium oxysporum (level) (Fusarium oxysporum)

GFPAF (listed as Solanum lycopersicum) [TsORF18-2-5aa-3]
0: Plate antimicrobial activity test Colletotrichum destructivum (level) ([1]; peptide 1 μM) | Plate antimicrobial activity test Colletotrichum destructivum (level) ([1]; peptide 10 μM) | Plate antimicrobial activity test Colletotrichum destructivum (level) ([1]; peptide 100 μM) | Plate antimicrobial activity test Pyricularia oryzae (level) (Pyricularia oryzae; peptide 1 μM) | Plate antimicrobial activity test Pyricularia oryzae (level) (Pyricularia oryzae; peptide 10 μM) | Plate antimicrobial activity test Pyricularia oryzae (level) (Pyricularia oryzae; peptide 100 μM) | Plate antimicrobial activity test Collectotrichum orbiculare (level) ([2]; peptide 1 μM) | Plate antimicrobial activity test Collectotrichum orbiculare (level) ([2]; peptide 10 μM) | Plate antimicrobial activity test Collectotrichum orbiculare (level) ([2]; peptide 100 μM) | Plate antimicrobial activity test Botrytis cinerea (level) (Botrytis cinerea; peptide 1 μM) | Plate antimicrobial activity test Botrytis cinerea (level) (Botrytis cinerea; peptide 10 μM) | Plate antimicrobial activity test Botrytis cinerea (level) (Botrytis cinerea; peptide 100 μM) | Plate antimicrobial activity test Fusarium oxysporum (level) (Fusarium oxysporum)

FWRIW (listed as Solanum lycopersicum) [TsORF18-2-5aa-14]
0: Plate antimicrobial activity test Colletotrichum destructivum (level) ([1]; peptide 1 μM) | Plate antimicrobial activity test Colletotrichum destructivum (level) ([1]; peptide 10 μM) | Plate antimicrobial activity test Colletotrichum destructivum (level) ([1]; peptide 100 μM) | Plate antimicrobial activity test Pyricularia oryzae (level) (Pyricularia oryzae; peptide 1 μM) | Plate antimicrobial activity test Pyricularia oryzae (level) (Pyricularia oryzae; peptide 10 μM) | Plate antimicrobial activity test Pyricularia oryzae (level) (Pyricularia oryzae; peptide 100 μM) | Plate antimicrobial activity test Collectotrichum orbiculare (level) ([2]; peptide 1 μM) | Plate antimicrobial activity test Collectotrichum orbiculare (level) ([2]; peptide 10 μM) | Plate antimicrobial activity test Collectotrichum orbiculare (level) ([2]; peptide 100 μM) | Plate antimicrobial activity test Botrytis cinerea (level) (Botrytis cinerea; peptide 1 μM) | Plate antimicrobial activity test Botrytis cinerea (level) (Botrytis cinerea; peptide 10 μM) | Plate antimicrobial activity test Botrytis cinerea (level) (Botrytis cinerea; peptide 100 μM) | Plate antimicrobial activity test Fusarium oxysporum (level) (Fusarium oxysporum)
